Test results: patent US7655395B2, “Isolation and use of ryanodine receptors” (E.I. du Pont de Nemours and Company, priority 2002, dated 2010)

Key:
[1] = molecular target: native cockroach ryanodine receptors (roach femoral muscle membranes) (Periplaneta americana, UniProt A0ABQ8T696); test: Radioligand displacement ([3H]-GN analog Cpd 1) on roach femoral muscle membranes; type: binding
Experimental: Binding to Roach Femoral Muscle Membranes:
Assays were carried out in triplicate.

[2] = system: native cockroach ryanodine receptors (in embryonic neuronal cells); test: Calcium release assay, calcium imaging of embryonic cockroach neuronal cells (Fluo-4); type: cell-based, Periplaneta americana
From the text: Embryonic neuronal cultures of the American cockroach Periplaneta americana were established, with minor modifications, following the method of Beadle and Lees (1988) (in Cell Culture Approaches to Invertebrate Neuroscience, Academic Press, New York, pp 123-127). Briefly, 26-27-day old oothecae were collected, surface-sterilized and cut open along a line one-third of the distance below the dorsal midline. The heads were removed and placed in Schneider's Drosophila medium (Invitrogen Life Technologies™, Carlsbad, Calif.). Using fine forceps 40 brains were individually removed and placed in a small glass vial containing 700 μl of ‘5+4’ medium (‘5+4’ medium contained 5 parts Schneider's Drosophila medium plus 4 parts roach Basal Medium Eagle, with Earle's salts (BME, Sigma™, St. Louis, Mo.). Roach BME (with Earle's salts) contained 5 parts Hepes (1 M), 1 part penicillin/streptomycin and 44 parts BME (with Earle's salts). ‘5+4’ medium was made fresh and sterile filtered (0.2 μm filter) just prior to use). The brains were dissociated by sequential trituration as follows: 1) brains were passed through a standard Pasteur pipette 10 times; 2) the resulting tissue suspension was passed an additional 5 times through a Pasteur pipet with tip flamed to about half of its original diameter; 3) a final 5 passes were performed using a Pasteur pipet with tip flamed to slightly less than half of its original diameter. A repeat pipettor was used to dispense a 5 μl volume of the resulting suspension into the center of each well of a 96-well, glass-bottom plate previously coated with poly-L-lysine (0.2 mg/ml solution). Cells attached to the bottom of the wells during a 50 min incubation at 27-29° C. 150 ul of a 1:1 mixture of Leibovitz's L-15 medium and Yunker's modified Grace's medium was added, and plates were maintained in a humid incubator at 27-29° C. until use. After cells were allowed to attach wells were filled with a 1:1 mixture of Leibovitz's L-15 medium and Yunker's modified Grace's medium (Leibovitz's L-15 and Grace's medium were obtained from Invitrogen Life Technologies™, Carlsbad, Calif. and Yunker's modified Grace's medium was made with Grace's medium modified by addition of 5 mg L-methionine, 10 mg L-alanine, 182 mg MgCl2.6H20, 1 g Albumin Fraction V, 7 ml Fetal bovine serum, 10 ml Chick embryo extract, 2 ml Penicillin/Streptomycin, and 2 mg 20-hydroxyecdysone (prepared in ethanol prior to addition) to a final volume of 100 ml and sterile filtered (0.2 μm filter)). Cells were maintained in a high humidity incubator at 29° C. until testing.
The calcium imaging and acquisition protocols using roach neuronal cells is as follows:
Cells were rinsed in standard physiological saline having the following composition (mM): NaCl 190; CaCl2 9; KCl 3.1; probenicid 1; Tris buffer 10; pH 7.2. Cells were then bathed in standard physiological saline containing the calcium sensitive fluoroprobe Fluo-4 AM (2 μM) and Pluronic F127 (0.002%) for 45 min. Cells were then rinsed in standard physiological saline for at least 15 min prior to testing. Within the hour prior to testing, standard physiological saline was replaced with standard physiological saline containing the organic cation channel blocker pimozide (10 μM), to inhibit influx of external calcium through voltage-gated calcium channels. The 96-well plate was placed on a Prior™ motorized stage mounted onto a Nikon Diaphot microscope and imaged using a 20× Fluor objective (NA 0.75). Individual wells from the 96-well plate were sequentially excited with light at 495 nm, and the emitted fluorescence at 530 nm was detected using a Hamamatsu ORCA ER digital camera with 2 pixel binning (image size 672×512 pixels).
Acquisition control, image processing and image analysis were conducted using Universal Imaging Corporation's MetaMorph™ imaging software (Universal Imaging, West Chester, Pa.). A series of 3 “control” images were acquired for each well. […]

Sequence of native cockroach ryanodine receptors (roach femoral muscle membranes) (A0ABQ8T696 entry or part of it): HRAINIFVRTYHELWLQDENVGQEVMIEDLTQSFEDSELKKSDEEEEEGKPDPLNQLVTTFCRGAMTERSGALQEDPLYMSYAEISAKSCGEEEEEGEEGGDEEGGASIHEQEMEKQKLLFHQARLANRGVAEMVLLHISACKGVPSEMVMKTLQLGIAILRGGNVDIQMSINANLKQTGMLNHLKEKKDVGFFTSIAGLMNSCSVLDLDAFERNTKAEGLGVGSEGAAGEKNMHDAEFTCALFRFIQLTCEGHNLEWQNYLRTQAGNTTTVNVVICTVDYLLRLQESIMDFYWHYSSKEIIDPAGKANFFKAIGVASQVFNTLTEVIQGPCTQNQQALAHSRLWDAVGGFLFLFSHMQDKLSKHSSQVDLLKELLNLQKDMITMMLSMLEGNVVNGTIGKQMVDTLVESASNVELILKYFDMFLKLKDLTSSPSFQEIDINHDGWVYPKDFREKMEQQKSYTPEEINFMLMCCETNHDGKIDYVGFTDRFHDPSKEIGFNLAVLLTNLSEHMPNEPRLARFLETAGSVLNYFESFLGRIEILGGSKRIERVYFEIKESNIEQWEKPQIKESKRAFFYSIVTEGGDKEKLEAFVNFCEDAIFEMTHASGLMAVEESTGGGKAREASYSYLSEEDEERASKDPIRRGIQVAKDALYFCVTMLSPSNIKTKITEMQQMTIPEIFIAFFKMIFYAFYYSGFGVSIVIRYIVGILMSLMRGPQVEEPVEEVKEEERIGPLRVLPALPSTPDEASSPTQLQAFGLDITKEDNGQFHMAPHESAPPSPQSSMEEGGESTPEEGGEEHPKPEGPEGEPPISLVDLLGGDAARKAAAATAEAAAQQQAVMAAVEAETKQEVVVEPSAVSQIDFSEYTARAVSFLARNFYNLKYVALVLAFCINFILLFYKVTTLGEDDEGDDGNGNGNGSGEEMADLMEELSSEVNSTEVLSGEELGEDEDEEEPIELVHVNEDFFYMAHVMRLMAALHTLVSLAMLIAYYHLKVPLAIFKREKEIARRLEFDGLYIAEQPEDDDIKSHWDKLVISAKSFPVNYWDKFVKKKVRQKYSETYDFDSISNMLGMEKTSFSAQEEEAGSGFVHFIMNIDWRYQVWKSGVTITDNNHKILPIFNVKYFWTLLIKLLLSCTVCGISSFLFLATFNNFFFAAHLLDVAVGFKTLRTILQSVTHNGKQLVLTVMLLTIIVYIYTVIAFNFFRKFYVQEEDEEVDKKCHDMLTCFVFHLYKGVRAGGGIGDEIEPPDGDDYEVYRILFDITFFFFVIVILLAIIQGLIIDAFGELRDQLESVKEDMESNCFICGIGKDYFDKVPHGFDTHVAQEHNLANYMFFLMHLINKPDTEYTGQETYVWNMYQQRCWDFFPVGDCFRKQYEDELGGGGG

Row | SMILES | IC50 ([1]; displacement of [3H]-Cpd 1, roach muscle membranes, 60 min at 32° C., read-out: Displacement IC50 (nM) P. americana) | Calcium Release Threshold (nM) P. americana [2] | Radioligand Displacement (P. americana) ([1]; Table 6, result in words) | Calcium Release (P. americana) ([2]; Table 6, result in words)
1 | CNC(=O)c1cc(Cl)cc(C)c1NC(=O)c1cc(Br)nn1-c1ncccc1Cl [Cpd 14] | < 300 nM | <300 nM |  | 
2 | Cn1c(=O)c2c(ncn2C)n(C)c1=O [Caffeine, reference compound] |  |  | Inactive | Agonist
